“And” between values parts separate entries of the source, which are not always exact repeats. Identical values can stand only once.
Columns and labels:
FGF1 = target: T1, FGF1 (Homo sapiens, UniProt P05230); assay: Fluorescence spectroscopy binding constant of FGF1 and suramin derivatives; conditions: fluorescence quenching, 5 µM FGF1, non-linear regression with Stern–Volmer equation, pH 6.5
T1 construct: made in house
Method: The binding constant Kd was calculated for FGF1 and the five derivatives in a buffer containing 10% D2O, 50 mM AMS, 20 mM phosphate buffer, and 50 mM NaCl at pH 6.5 using an F-2500 Hitachi fluorescence spectrophotometer.
[…] has tremendous significance for biochemical application because it provides valuable knowledge about the probability of quencher activity. The anti-mitogenic activity of the five compounds was achieved by the same mechanism in which suramin inhibits the mitogenic activity of FGF1. A non-linear regression curve was plotted for the relative intensities of activity versus drug concentration using the Stern–Volmer equation (Eq. 1). log(F0−F)/F=logK+nlog[Q], (1)
where F0 represents the fluorescence intensity in the absence of the compounds, and F represents the fluorescence intensity in the presence of the [Q] concentration of the compounds.
Increasing concentrations of these five suramin derivatives were added to a solution containing 5 µM FGF1. A reduction in the fluorescence intensity was reported for all five suramin derivatives. The Stern–Volmer equation was used to calculate the binding constant between FGF1 and compounds 14, 15, 17, 18, and 21 for relative intensities versus the total concentration in a non-linear regression curve.

[1] = WST-1 assay, cytotoxicity in tumorigenic cells; type: cell-based, human; conditions: human; MCF-7 cells, 48 h, SigmaPlot; read-out: estimated IC50 (cytotoxicity)
Method: (§1) The water-soluble tetrazolium salt (WST-1) assay was performed to assess the effects of the compounds on cell proliferation and cytotoxicity. DMEM/F12 containing 10% FBS was used for the cell culture, and incubation was performed in 5% CO2 till the logarithmic growth phase was achieved. On the day before the experiment, the cells were trypsinized and seeded in a 96-well plate at a density of 5000 cells/well. For the FGF1-stimulated cell proliferation assay, the cells were then incubated for 24 h in a serum-free medium containing 0.1% bovine serum albumin (BSA). Serum-starved cells with or without a specified concentration of suramin, 14, 15, 17, 18, 21, and FGFRD2 were stimulated with 100 nM of FGF1 again for 48 h. For the purpose of the cytotoxicity assay, the cells were treated with an increased concentration of suramin and compounds 14, 17, 15, 18, and 21 (Figure 6) for 48 h. Also, 1/10 of the volume of WST-1 cell reagent was inserted in every well and maintained at 37°C for another 4 h before harvesting. There was gentle agitation of the medium in the cell culture plate for 10 min using a shaker. A Synergy 2 microplate reader (BioTek Instruments, Inc., VT, United States) was used to measure the absorbance at 450 nm. The relative absorbance was compared with the control treatment to determine the relative cell number.
(§2) […] […] The reason for the higher cytotoxicity was the presence of methyl groups on the suramin structure ([Martello et al., 2001]).
(§3) Suramin-induced neuropathy may depend on the effects on calcium (Ca^2+) homeostasis as a potential pathological mechanism, and the full or partial positive charge of the element when directly attached to the ring at each of the sulphonic groups (HSO3). These interactions exert a moderate to strong electron-withdrawing inductive effect, which may be responsible for the observed suramin cytotoxicity ([Prasetyaningrum et al., 2018]; [Von Der Ahe et al., 2018]). The cytotoxicity of the synthesized analogs was lower as there were methyl groups and no sulfonic acid groups attached to the suramin backbone. The IC50 values of the synthesized compounds in MCF-7 breast cancer cells were analyzed using SigmaPlot software.

MCF-7 cells = assay: WST-1 assay, cytotoxicity in tumorigenic cells; type: cell-based, human; conditions: for Mean (Blank 450) / Fold (mean) / Blank 450 / Fold: S8; for Fold (mean): relative to control; for Blank 450: single replicate absorbance; for Fold: single replicate relative to control
Method: as §1, §2, §3

[2] = WST-1 assay, cytotoxicity in normal breast epithelial cell line (non-tumorigenic); type: cell-based; conditions: human; non-tumorigenic MCF-10A cells; read-out: estimated IC50 (cytotoxicity)
Method: as §1
In order to gain some insight about the selectivity of the compounds between tumorigenic and non-tumorigenic cells, the cytotoxicity was also being evaluated against normal breast cell lines by examining the cytotoxicity of suramin and its derivatives, compounds 15, 18, and 21, in a normal breast epithelial cell line (non-tumorigenic), MCF-10A. […] Compared to their cytotoxicity in tumorigenic MCF-7 cells (Figure 6), the estimated IC50 values in MCF-10A were higher than those in MCF-7 cells. […] However, the estimated IC50 value of suramin and its derivatives in both non-tumorigenic MCF-10A and tumorigenic MCF-7 cells were over 100 μM. The effective concentrations of suramin and its derivatives to attenuate FGF1-stimulated cell proliferation in MCF-7 cells were around 1 μM (Figure 5), which is non-toxic concentration to both MCF-7 cells and MCF-10A cells. […] Therefore, in addition to the specificity of each drug, the selectivity of suramin and its derivatives to disrupt the FGF1/FGFR-mediated breast cancer growth might rely on the overexpression or amplification of FGFR2 in breast cancer cells, but not in normal cells, and the secreted FGF1 ligand by autocrine or paracrine effects from cancer cells or their surrounding stroma cells or adipocytes (tumor microenvironment). The statistical data for the cytotoxicity are shown in Supplementary Figure S8.

[3] = Exposure stability study by 1H NMR in DMSO-d6 and D2O; type: physicochemical; conditions: 0.017 mol/L in DMSO-d6 and D2O, 11 days
Method: The stability of the compounds was verified in both aqueous and DMSO solutions. In aqueous medium, the stability of the suramin derivatives 15 and 18 were considered to verify the stability. A control experiment consisting of a DMSO-d 6 (0.017 mol/L) solution of 15 and a D2O solution of 15 (0.017 mol/L) was maintained on the laboratory bench. All experiments were performed in NMR tubes containing 0.017 mol/L solutions of compounds 15 and 18 in DMSO-d 6 and D2O, respectively. NMR spectra were recorded over 11 days (initially daily for 1 week).
10 mg of the newly synthesized compound was diluted in 500 µL DMSO-d 6 under investigation in a 5-mm NMR tube. The procedure was maintained as it is for 11 days in the solution. The ^1H NMR spectrum was recorded daily for 4 days up to 11 days.
10 mg of the novel compound was diluted in 500 µL D2O under investigation in a 5-mm NMR tube. The procedure was maintained as it is for 11 days in the solution. The ^1H NMR spectrum was recorded daily for 4 days up to 11 days.

T1 sequence (P05230 whole entry): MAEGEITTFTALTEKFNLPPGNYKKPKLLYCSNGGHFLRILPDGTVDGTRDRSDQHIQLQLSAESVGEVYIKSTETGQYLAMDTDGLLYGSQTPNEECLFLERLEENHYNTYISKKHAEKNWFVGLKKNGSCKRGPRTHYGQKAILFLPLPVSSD

O=C(Nc1ccc(C(=O)Nc2cc(S(=O)(=O)[O-])cc3cc(S(=O)(=O)[O-])cc(S(=O)(=O)[O-])c23)cc1)Nc1ccc(C(=O)Nc2cc(S(=O)(=O)[O-])cc3cc(S(=O)(=O)[O-])cc(S(=O)(=O)[O-])c23)cc1.[Na+].[Na+].[Na+].[Na+].[Na+].[Na+] [Compound 15, Sodium 8,8'-((4,4'-(carbonylbis (azanediyl))bis (benzoyl))bis (azanediyl))bis (naphthalene-1,3,6-trisulfonate)]
Kd (FGF1): 20.9 µM | IC50 at 48 h [1]: > 100 µM | Mean (Blank 450) (MCF-7 cells; 1 uM): 1.163 | Fold (mean) (MCF-7 cells; 1 uM): 1.00 | Blank 450 (MCF-7 cells; 1 uM): 1.143 and 1.162 and 1.195 and 1.152 | Fold (MCF-7 cells; 1 uM): 0.981 and 0.997 and 1.026 and 0.989 | Mean (Blank 450) (MCF-7 cells; 5 uM): 1.146 | Fold (mean) (MCF-7 cells; 5 uM): 0.98 | Blank 450 (MCF-7 cells; 5 uM): 1.161 and 1.116 and 1.206 and 1.101 | Fold (MCF-7 cells; 5 uM): 0.996 and 0.958 and 1.035 and 0.945 | Mean (Blank 450) (MCF-7 cells; 10 uM): 1.122 | Fold (mean) (MCF-7 cells; 10 uM): 0.96 | Blank 450 (MCF-7 cells; 10 uM): 1.151 and 1.117 and 1.059 and 1.162 | Fold (MCF-7 cells; 10 uM): 0.988 and 0.959 and 0.909 and 0.997 | Mean (Blank 450) (MCF-7 cells; 50 uM): 0.982 | Fold (mean) (MCF-7 cells; 50 uM): 0.84 | Blank 450 (MCF-7 cells; 50 uM): 0.998 and 1.012 and 0.955 and 0.961 | Fold (MCF-7 cells; 50 uM): 0.856 and 0.868 and 0.820 and 0.825 | Mean (Blank 450) (MCF-7 cells; 100 uM): 0.880 | Fold (mean) (MCF-7 cells; 100 uM): 0.75 | Blank 450 (MCF-7 cells; 100 uM): 0.927 and 0.887 and 0.833 and 0.872 | Fold (MCF-7 cells; 100 uM): 0.796 and 0.761 and 0.715 and 0.748 | cytotoxicity compared with suramin (MCF-7 cells; MCF-7 cells, 1-100 µM, 48 h, especially at concentrations higher than 10 µM): less toxic | IC50 at 48 h [2]: 221 ± 3.57 µM | stability in solution (1H NMR) [3]: remarkably stable

Source: paper PMC8763243, “Synthesis of Novel Suramin Analogs With Anti-Proliferative Activity via FGF1 and FGFRD2 Blockade” (Frontiers in Chemistry, 2022)
